Broadly, the solubility is the dissolved amount per volume that the medium holds. The pKa is the negative logarithm of the acid dissociation constant.

The values that follow come from patent publication US10633332B2, “Guanidine compounds for removal of oxyanions from aqueous solutions and for carbon dioxide capture” (UT-Battelle, LLC, priority 2010, dated 2020).

Several values for one entry are separate records, joined by “and”; a condition that tells them apart may be missing. Equal values may be shown once. Read-outs that look alike come from different tables or passages of the source. Marks after values point to notes of the source that are not given here.

The nature of data set [1]: Sulfate separation from seawater (35S radiotracer, β liquid scintillation counting). Particulars: for Amount of SO4^2− removed / [SO4^2−] left: initial sulfate 30 mM; for % Sulfate Removed / Sulfate Left: initial sulfate 30 mmol/L. The protocol: The seawater used in the experiment was collected from the gulf stream in the Atlantic Ocean. Prior to use, the water was pre-filtered to remove suspended particulates and small organisms. […] The sulfate concentration in seawater was estimated to be about 30 mM by titration with BaCl2. […] A volume of 0.75 mL of each of these solutions was pipetted into a 2 mL Eppendorf microcentrifuge tube, and 0.75 mL of seawater pre-spiked with the ^35S radiotracer was added. The resulting solution mixtures were mixed for 24 hours using a rotating wheel set at 60 rpm in a temperature-controlled air-box set at 25±0.2° C. […] The radiolabeled ^35S radiotracer is a β emitter, thereby allowing determination of the sulfate concentration of a solution spiked with a known amount of Na2^35SO4 by β liquid scintillation counting. The seawater solutions were pre-spiked with […] of the ^35S radiotracer, as above. […] The volume of the spike solution was determined by factoring in the original activity of the solution and correcting for the short half-life of the ^35S radiotracer. The Na2^35SO4 solution had completed 3.8 half-lives before use in this experiment. […] The resulting mixtures were vigorously shaken to allow for complete dissolution and dispersion of the salt solutions. The samples were then placed on the analyzer and counted for 30 minutes after allowing 60 minutes for dark-adaption.

Data set [2] is described as follows: Sulfate removal from a calcium sulfate suspension (CaSO4 dissolution cycle). Particulars: overnight, room temperature, pH 6-7, powder X-ray diffraction. On the procedure: An example of sulfate removal from a calcium sulfate suspension is shown schematically in FIG. 5. In the first step, the initial CaSO4 solid is treated with an aqueous chloride salt of the compound that results in crystallization of the guanidinium sulfate salt and release of the calcium ions in solution, as soluble CaCl2. In the second step, the insoluble guanidinium sulfate salt is treated with sodium hydroxide base to neutralize the guanidinium cations and release the sulfate ions in solution, as soluble Na2SO4. The resulting solid guanidine compound is then recycled and converted back into guanidinium chloride with aqueous HCl, so it can be reused in another CaSO4 dissolution cycle. Thus, the entire process is done in water (no organic solvents used), and the only chemicals consumed in the overall process are NaOH and HCl, resulting in two aqueous waste streams consisting of calcium chloride and sodium sulfate. The unique aspect of this invention is the employment of a crystallization process to achieve dissolution of CaSO4. Also, this approach is based on anion chelation by guanidinium groups rather than the more common metal chelation, which may be prone to interference from other metals in solution. […] Finally, the recovered BBIG was converted back into the chloride salt by treatment with aqueous hydrochloric acid and recycled for another CaSO4 dissolution cycle.

Data set [3] in a line: Aqueous solubility of BBIG salts (gravimetric / UV spectroscopy). Particulars: 25 °C, water, thermodynamic from solid.
Procedure: The solubility of BBIG-Cl was determined gravimetrically. A saturated solution of BBIG-Cl was obtained by placing an excess of the salt in a 15 mL polypropylene centrifuge tube and adding 2 mL of deionized water (milli-Q). […] One mL of the saturated salt solution was then pipetted into a pre-weighed glass vial containing a magnetic stir bar. The water was then removed under reduced pressure and gentle heating (˜50° C.) while stirring. The resulting solid was left under vacuum overnight to ensure complete removal of the water, prior to weighing the vial.
These solutions were then diluted to ensure the concentrations of the BBIG di-cation were in the concentration range of the calibration curve.
The conditions of data set [4]: cited from earlier work; for reaction rate of CO2 with the amino acid: 25° C., expected.
A short description of data set [5]: Carbonate/bicarbonate CO2 capture cycle: crystallization from 1 M NaHCO3. From the text: Finally, thermal decomposition of PyBIGH2(CO3)(H2O)4 regenerates the PyBIG compound and releases the CO2. […] The resulting mixture was filtered, and the separated crystalline solid was confirmed by PXRD and FTIR to be PyBIGH2(CO3)(H2O)4. […] The entire carbonate separation cycle was run three times, with observed yields for PyBIGH2(CO3)(H2O)4 crystallization of 99.0±0.4%, 97.2±0.6%, and 91.4±0.4%, corresponding to the first, second, and third cycle, respectively. The regeneration of the PyBIG compound was nearly quantitative in each cycle.

The nature of data set [6]: Differential scanning calorimetry of CO2 release. Type of data set: physicochemical. Particulars: DSC, all peaks between 80 and 140° C. integrated. From the text:
Although the CO2 desorption could theoretically be achieved by running reactions 1-6 in reverse order according to the principle of microscopic reversibility, in reality it would not be feasible as reaction 4 is practically irreversible. Such an approach would also defeat the purpose of avoiding heating the aqueous sorbent. Instead, once the loading is complete, the crystalline PyBIGH2(CO3)(H2O)4 is removed from solution and heated in the solid state to release the CO2 gas and the water vapors. Given the completely different conditions involved, such a gas-solid process must have different energetics compared to the gas-liquid-solid process involved in CO2 absorption. In order to determine the enthalpy of CO2 release, differential scanning calorimetry (DSC) was employed. DSC is a common technique used in thermal analysis of solids. […] As the enthalpy of vaporization for water is 40.65 kJ/mol, more than 90% of the enthalpy of desorption is used for water evaporation. This represents a significant energy penalty that must be accounted for, and which encourages the use of renewable sources of energy, such as concentrated solar power (vide infra), to make the overall DAC process energy more sustainable.

Data set [7] is described as follows: CO2 release and PyBIG regeneration using concentrated solar power. Type of data set: physicochemical. Particulars: for Δm: 38 mg sample. The protocol: Carbon dioxide release and regeneration of PyBIG using concentrated solar power: The CO2 release from the PyBIGH2(CO3)(H2O)4 crystals was carried out by solar heating with a solar oven. The oven consists of a vacuum-insulated borosilicate tube placed in the focal point of two adjustable parabolic reflectors. The temperature inside the tube was monitored with a thermocouple. The PyBIGH2(CO3)(H2O)4 samples (0.038 g, 0.1 mmol) were loaded in 1 mL glass vials, which were placed inside the oven tube. The solar oven was then placed in the full sun and oriented to capture the maximum amount of sunlight. The temperature was ramped to the targeted values of 120° C., 140° C., 150° C., or 160° C. as fast as possible (typically within 3 to 10 minutes), then held within ±2° C. by intermittently moving the oven out of the sun, or/and closing the reflectors. The samples were subsequently removed from the tube, allowed to cool to room temperature, and weighed to determine their mass loss. The resulting yellow solids were analyzed by FTIR to confirm the disappearance of the carbonate and water peaks.
However, considering this transformation is highly endothermic, the possibility of using concentrated solar power to render the process more energy sustainable was explored. For the initial small-scale proof of concept, a solar oven (FIG. 6) was used to heat the PyBIGH2(CO3)(H2O)4 samples (38 mg, 0.1 mmol) at four different temperatures ranging between 120 and 160° C., monitoring the extent of the reactions by the samples' weight loss (Table 7 below). FTIR analyses also corroborated the release of CO2, most evidently noticeable by the disappearance of the strong peak at 1361 cm^−1 corresponding to the stretching mode of the carbonate anion.

The conditions of data set [8]: aqueous, ˜10 mM.
Data set [9] is described as follows: Thermodynamic analysis: reaction enthalpies (variable-temperature solubility, pKa, van't Hoff).
The conditions of data set [10]: literature value; cited from earlier work.

Regarding `Cl.Cl.N=C(N)N/N=C/c1ccc(/C=N/NC(=N)N)cc1` [Compound 1], in data set [1], the “degree of separation of sulfate from seawater” value was “very high degrees of separation”. For the same molecule, the “Amount of SO4^2− removed” value in [1] (1 equiv BBIG) stood at 88%; in data set [1] (1.1 equiv BBIG), 95%; in [1] (1.5 equiv BBIG), 99%; in data set [1] (2 equiv BBIG), 99%. Besides, the “[SO4^2−] left” value in data set [1] (1 equiv BBIG) is 3.5 mM; in data set [1] (1.1 equiv BBIG), 1.6 mM; in data set [1] (1.5 equiv BBIG), 0.3 mM; in data set [1] (2 equiv BBIG) it was 0.3 mM. The “% Sulfate Removed” value in data set [1] (compound 15 mmol/L) was 40.8% and 41.8%; in [1] (compound 30 mmol/L) it was 88.7% and 88.0%; in [1] (compound 33 mmol/L) it was 95.6% and 93.6%; in data set [1] (compound 45 mmol/L), 99.0% and 98.9%; in [1] (compound 60 mmol/L), 98.9%. Moreover, the “Sulfate Left” value in [1] (compound 15 mmol/L) was 1706 mg/L and 1676 mg/L; in data set [1] (compound 30 mmol/L), 326 mg/L and 347 mg/L; in data set [1] (compound 33 mmol/L), 128 mg/L and 185 mg/L; in data set [1] (compound 45 mmol/L), 28 mg/L and 30 mg/L; in data set [1] (compound 60 mmol/L), 31 mg/L. In addition, the “conversion of solid CaSO4(H2O)2 into crystalline BBIG-SO4(H2O)2” value in [2] is “complete conversion”. Besides, in data set [3], the solubility at 48 h stood at 63 mM.

Turning to `Cl.Cl.N=C(N)N/N=C/c1cccc(/C=N/NC(=N)N)n1` [Compound 2], the “degree of separation of sulfate from seawater” value in [1] is “very high degrees of separation”. The “% Sulfate Removed” value in [1] (compound 15 mmol/L) was 48.41% and 48.57%; in [1] (compound 30 mmol/L), 93.28% and 94.41%; in [1] (compound 33 mmol/L), 99.72% and 99.60%; in data set [1] (compound 45 mmol/L), 99.94%; in data set [1] (compound 60 mmol/L) it was 99.95%. Further, the “Sulfate Left” value is 1487 mg/L and 1482 mg/L in data set [1] (compound 15 mmol/L); 194 mg/L and 161 mg/L in data set [1] (compound 30 mmol/L); 8 mg/L and 12 mg/L in data set [1] (compound 33 mmol/L); 1.7 mg/L in [1] (compound 45 mmol/L); 1.5 mg/L in [1] (compound 60 mmol/L).

As for `CNCC(=O)O` [Sarcosine, sarcosine], the “reaction rate of CO2 with the amino acid” value in data set [4] is recorded as 18.6 kM/s.

On to `N=C(N)NN=Cc1cccc(C=NNC(=N)N)n1.O.O.O.O.O=C(O)O` [PyBIGH2(CO3)(H2O)4], for which the “yield of PyBIGH2(CO3)(H2O)4 crystallization” value worked out at 99.0±0.4% in data set [5] (first cycle, 1 M NaHCO3, room temperature, four hours); 97.2±0.6% in [5] (second cycle); 91.4±0.4% in data set [5] (third cycle). Moreover, the “overall enthalpy of desorption” value in data set [6] turned out to be 53.3 ± 0.96 kcal/mol. Also, the Δm/mi was −31.6% in data set [7] (120° C., 30 min); −34.2% in [7] (140° C., 10 min); −31.6% in [7] (150° C., 5 min); −36.8% in data set [7] (160° C., 2 min). In addition, the Δm in data set [7] (120° C., 30 min) was -12 mg; in data set [7] (140° C., 10 min), -13 mg; in [7] (150° C., 5 min), -12 mg; in [7] (160° C., 2 min), -14 mg. In addition, the “temperature of heating at which CO2 is released” value (heating the carbonate crystals) is 80-120 °C. Also, the decomposition completion (isothermal TGA at 80° C., after 300 minutes) is given as 77%. Further, the “time to complete loss of carbon dioxide and water” value is, setting by setting: (isothermal TGA at 100° C.) 150 min; (isothermal TGA at 120° C.) 60 min. Moreover, the mass loss reads like this: (oven, one hour at 120° C.) 34.3%; (temperature-ramped TGA, between 65 and 140° C.) 35.2%.

Regarding `N=C(N)N/N=C/c1cccc(/C=N/NC(=N)N)n1` [PyBIG], the “no decomposition of the regenerated compound up to” value (TGA-MS) was 190 °C. The “pH of saturated solution” value in data set [8] is on record as “about 10”. In [9] (This study), the “ΔH reaction 1 (PyBIG dissolution)” value was 10.2 kcal/mol and the “ΔH reaction 6 (PyBIGH2(CO3)(H2O)4 crystallization)” value was -11.2 kcal/mol. The “ΔH reaction 2 (PyBIG protonation by water)” value in data set [9] (This study, composed from protonation enthalpies and ionization of water) is reported as 43.6^a kJ/mol. Besides, the “overall enthalpy of CO2 absorption” value in data set [9] (sum of reactions 1-6) was -16.9 kcal/mol.

In the case of `[Na+].[OH-]` [NaOH], in data set [4] (1 M solution), the “flux of CO2 absorbed from air” value was “around 30 μmol/m2/s”.

Turning to `NCC(=O)O` [Glycine, glycine], the “reaction rate of CO2 with the amino acid” value in data set [4] was 13.9 kM/s. For the same molecule, the pKa in data set [10] is 9.5.
